pIC50: −log10 of the molar value. Entries after “also recorded” stand apart in the source; their conditions may differ. Where two headings read alike, the source gives them in different places.
How the values were obtained:
Format in all cases: cell-based, human
cleaved caspase-3 = assay: Western blotting for apoptosis, primary cultures
Procedure: (§1) Following drug treatment, cell lysates were harvested using Cytobuster Protein Extraction Reagent (71009, EMD Millipore, Darmstadt, Germany) with protease inhibitors (cOmplete, EDTA-free Protease Inhibitor Cocktail Tablets, Roche Applied Science, UK). 20 µg of protein extract were loaded on 12% SDS-PAGE gels and wet-transferred to a PVDF membrane. Antibodies used include: monoclonal anti-β-actin 1∶5000 (A5316, Sigma-Aldrich), anti-LC3B 1∶3000 (Ab51520, abcam), cleaved caspase-3 (Asp175) 1∶1000 (9661S, Cell Signaling Technology) and secondary antibodies were Rabbit anti-mouse-HRP 1∶10000 (P0260, Dako) and anti-rabbit IgG HRP-linked 1∶5000 (Cell Signaling Technology Inc. 7074S). Kaleidoscope protein marker was run on each gel (161-0324, Bio-Rad).

[1] = tested on: primary prostate epithelial cells; assay: Flow cytometry cell cycle analysis, primary cells; settings: primary cells
Procedure: (§2) Following drug treatment, floating cells in the media were pooled with adherent cells, which were collected by trypsinisation. Following centrifugation cells were resuspended in 0.5 ml PBS. Cells were fixed in 2 ml ice cold 70% ethanol, which was added in a dropwise fashion while vortexing. Cells were incubated on ice for 30 min then washed in 5 ml PBS and resuspended in 0.4 ml PBS. Following storage at 4°C overnight, 50 µl of RNAse (1 mg/ml) and 50 µl of propidium iodide (1 mg/ml) were added to the cells. Following incubation at 37°C for 30 min the cells were analysed for 2N and 4N DNA content on a flow cytometer (Cyan ADP Analyser, Beckman Coulter).

PCa Primary cells (Gl7) = assay: MTS assay, primary cultures from prostate carcinoma Gleason 6/7
Description: (§3) Primary prostate epithelial cells were isolated from human tissue samples. The samples were collected with ethical permission from York District Hospital (York, UK) and Castle Hill Hospital (Cottingham, UK). Benign prostatic hyperplasia (BPH) and prostate cancer samples were obtained from TURP (transurethral resection of the prostate), radical prostatectomy (laparoscopic and open) and cystectomy operations. All patients gave written consent for their tissue to be used for research and all patient samples were anonymised. Permission was approved by the Local Research Ethical Committees, associated with York District Hospital and Castle Hill Hospital. Permission was administered by the Yorkshire and Humber Research Ethics Committee.
(§4) Prostate epithelial cells were cultured as previously described in stem cell media (SCM) consisting of keratinocyte serum-free media (KSFM) with bovine pituitary extract (BPE) and epidermal growth factor (EGF), glutamine, stem cell factor (SCF), granulocyte macrophage colony stimulating factor (GM-CSF), leukaemia inhibitory factor (LIF) and cholera toxin. Cells were grown with STO feeder cells (irradiated at 60 Gy) on collagen I-coated plates.
(§5) This assay was performed for the initial screening of the effect of the Pd complex on the cell lines and the whole cell population of primary cultures. The CellTiter 96® Aqueous One Solution Cell Proliferation Assay kit (G3580, Promega, Madison, WI, USA) was used and the manufacturer’s instructions were followed. Briefly, after treating cells that were seeded at a density of 5,000 cells per well in a 96-well plate in triplicate for a desired period (24 h, 48 h, 72 h), 20 µL of reagent was added to each well. Following 2.5 h incubation at 37°C, the absorbance was read at 485 nm using a plate reader (PolarStar Optima, BMG Labtech, UK). Percent viability was calculated using the formula (% Viability = [(Sample Absorbance/Control Absorbance)]×100.
(§6) MTS and ATP assays were performed in triplicate and data presented as the mean +/− standard deviation. IC50 values (Table 3 and Table 4) were calculated from graphs of transformed data following application of the nonlinear regression (curve fit) that represents the log(inhibitor) ‘v’ normalized response (GraphPad Prism software) (Supplementary Figures S1 and S2). For significance calculations, the Wilcoxon rank sum test was used (Sigmaplot). Flow cytometry analysis was carried out in triplicate and results are presented as an average with error bars indicating the standard error.

LC3-II = assay: Western blotting for autophagy, cell lines
Procedure: as §1

[2] = tested on: PCa Primary cells (Gl8/9); assay: MTS assay, primary cultures from prostate carcinoma Gleason 8/9
Description: as §3, §4, §5, §6

PNT1A, PNT2-C2, BPH-1 = assay: MTS assay, average over normal/benign cell lines; settings: average of PNT1A
Procedure: In this study, six different prostate cell lines (PNT1A, PNT2-C2, BPH-1, PC-3, LNCaP, P4E6) were used (Table 1). These cell lines encompass the spectrum of cellular differentiation status (basal, intermediate and luminal phenotypes), as well as the spectrum of normal, early cancer and late cancer. BPH-1 is derived from benign prostate hyperplasia (BPH), while PNT2-C2 and PNT1A are derived from normal prostate. PC-3, LNCaP and P4E6 are cancer cell lines. LNCaP, PNT2-C2, PNT1A were grown in RPMI medium with 10% FCS (foetal calf serum); PC-3 was grown in Ham’s F-12 medium with 7% FCS; BPH-1 was grown in RPMI medium with 5% FCS; P4E6 was grown in KSFM (Keratinocyte serum free medium) with 2% FCS. No antibiotics were used in any media. The cells were incubated at 37°C in a humidified atmosphere containing 5% CO2.
as §5
MTS and ATP assays were performed in triplicate and data presented as the mean +/− standard deviation. IC50 values (Table 3 and Table 4) were calculated from graphs of transformed data following application of the nonlinear regression (curve fit) that represents the log(inhibitor) ‘v’ normalized response (GraphPad Prism software) (Supplementary Figures S1 and S2). For significance calculations, the Wilcoxon rank sum test was used (Sigmaplot). […]

[3] = tested on: PNT2-C2, BPH-1, P4E6, PC-3 and LNCaP; assay: Flow cytometry cell cycle analysis, cell lines
Procedure: as §2

[PdCl(terpy)](sac)⋅2 H2O [Pd complex] was tested, and the “cleaved caspase-3 (apoptosis)” value (cleaved caspase-3; BPH primary sample) was “only a positive result with the BPH sample at a low dose”, the “cleaved caspase-3 (apoptosis)” value (cleaved caspase-3; primary cancer samples) was “no evidence of cleaved caspase-3; also recorded: No apoptosis was induced” and the “cells with more than 4N DNA content” value [1] was “increase in cells with more than 4N DNA content”. For the same substance, the sub-G1 content [1] was “clear dose response showing increase in sub-G1 content”, the pIC50 (PCa Primary cells (Gl7); PCa primary cells (Gl7), sample 06211rb, 72 h, read-out: IC50) was 4.96 and the pIC50 (PCa Primary cells (Gl7); PCa primary cells (Gl7), sample 06411lb, 72 h, read-out: IC50) was 5.28. For the same substance, the pIC50 (PCa Primary cells (Gl7); PCa primary cells (Gl7), sample 06411ra, 72 h, read-out: IC50) was 5.42, the pIC50 (PCa Primary cells (Gl7); PCa primary cells (Gl7), sample 06611lb, 72 h, read-out: IC50) was 4.88 and the pIC50 (PCa Primary cells (Gl7); PCa primary cells (Gl7), sample 06711rb, 72 h, read-out: IC50) was 5.08. It also gave a pIC50 (PCa Primary cells (Gl7); PCa primary cells (Gl7), sample 07011la, 72 h, read-out: IC50) of 5.27, a pIC50 (PCa Primary cells (Gl7); PCa primary cells (Gl7), sample 07011lb, 72 h, read-out: IC50) of 5.22 and a pIC50 (PCa Primary cells (Gl7); PCa primary cells (Gl7), sample 07311ra, 72 h, read-out: IC50) of 5.27. The pIC50 (PCa Primary cells (Gl7); PCa primary cells (Gl7), sample 22412, 72 h, read-out: IC50) was 5.20, the pIC50 (PCa Primary cells (Gl7); average of PCa primary cells (Gl7; Gleason 6/7), 72 h, read-out: IC50 AVERAGE) was 5.15 and the “reduction of cell viability compared to etoposide” value (PCa Primary cells (Gl7); malignant samples, both at 25 µM, 72 h, median values) was 10.66 fold. The “LC3-II expression (autophagy)” value (LC3-II; BPH-1, PNT2-C2 and P4E6 cells) was “clear increase in the expression of LC3-II”, the “levels of LC3-I and LC3-II” value (LC3-II; LNCaP and PC3 cells, any treatment) was “did not change dramatically or in a dose-dependent fashion” and the pIC50 ([2]; PCa primary cells (Gl8/9), sample 14912, 72 h, read-out: IC50) was 4.19. For the same substance, the pIC50 ([2]; PCa primary cells (Gl8/9), sample 16312, 72 h, read-out: IC50) was 4.15, the pIC50 ([2]; PCa primary cells (Gl8/9), sample 22912, 72 h, read-out: IC50) was 4.33 and the pIC50 ([2]; average of PCa primary cells (Gl8/9), 72 h, read-out: IC50 AVERAGE) was 4.22. It also gave a pIC50 (PNT1A, PNT2-C2, BPH-1; PNT2-C2, BPH-1, 24 h) of 4.80, a pIC50 (PNT1A, PNT2-C2, BPH-1; PNT2-C2, BPH-1, 48 h) of 5.17 and a pIC50 (PNT1A, PNT2-C2, BPH-1; PNT2-C2, BPH-1, 72 h) of 6.42. For the same substance, the “sub-G1 DNA content (cell death)” value ([3]; PC3 cells) was “almost no change”, the “sub-G1 DNA content (cell death)” value ([3]; all cell lines except PC3) was “increase in cells with sub-G1 DNA content” and the “S and G2 peaks” value ([3]; normal cells (BPH-1, PNT2-C2)) was “reduction in the S and G2 peaks”.

— publication PMC3651166, “Differential Cytotoxic Activity of a Novel Palladium-Based Compound on Prostate Cell Lines, Primary Prostate Epithelial Cells and Prostate Stem Cells” (PLoS ONE, 2013)
